Experimental data as given in publication PMC7224224, “Synthesis of diindolylmethane (DIM) bearing thiadiazole derivatives as a potent urease inhibitor” (Scientific Reports, 2020).

What was measured:
jack bean urease = jack bean urease (Canavalia ensiformis, UniProt P07374); experiment: biochemical
Description: Urease is an enzyme (jack bean urease) that catalyzes the hydrolysis of urea into carbon dioxide and ammonia. The production of ammonia was measured by the indophenol method and used to determine the urease inhibitory activity[57],[58]. The percentage remaining activity was calculated from the formula % Remaining Activity = [(ODtest)/(ODcontrol) × 100]. Thiourea was used as a standard inhibitor. To calculate IC50 values, different concentrations of synthesized compounds and standards were assayed at the same reaction conditions.

jack bean urease, sequence (P07374 whole entry, looked up): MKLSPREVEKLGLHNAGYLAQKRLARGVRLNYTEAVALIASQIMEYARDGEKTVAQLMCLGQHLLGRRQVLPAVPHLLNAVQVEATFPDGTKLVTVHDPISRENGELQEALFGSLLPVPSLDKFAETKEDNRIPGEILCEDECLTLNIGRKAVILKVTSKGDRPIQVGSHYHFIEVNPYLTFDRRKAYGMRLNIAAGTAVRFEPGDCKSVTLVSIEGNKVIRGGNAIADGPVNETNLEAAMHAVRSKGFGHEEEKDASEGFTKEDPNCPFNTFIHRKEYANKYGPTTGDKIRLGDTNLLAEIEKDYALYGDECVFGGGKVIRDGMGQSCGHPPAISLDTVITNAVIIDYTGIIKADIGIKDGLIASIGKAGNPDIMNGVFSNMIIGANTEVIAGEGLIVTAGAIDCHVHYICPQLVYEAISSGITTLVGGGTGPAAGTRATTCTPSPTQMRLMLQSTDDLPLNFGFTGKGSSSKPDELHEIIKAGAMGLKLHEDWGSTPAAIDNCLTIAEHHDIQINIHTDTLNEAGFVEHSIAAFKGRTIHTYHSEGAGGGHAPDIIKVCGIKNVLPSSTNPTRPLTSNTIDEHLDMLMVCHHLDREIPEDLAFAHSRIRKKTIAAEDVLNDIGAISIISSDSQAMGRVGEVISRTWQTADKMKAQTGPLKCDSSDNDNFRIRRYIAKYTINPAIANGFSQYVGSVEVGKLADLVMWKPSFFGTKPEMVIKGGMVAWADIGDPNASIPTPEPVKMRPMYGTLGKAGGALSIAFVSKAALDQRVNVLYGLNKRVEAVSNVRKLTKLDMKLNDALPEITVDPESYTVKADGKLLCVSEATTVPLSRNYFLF

Compound	melting point [°C]	IC50 (jack bean urease) [µM]
Cc1ccc([N+](=O)[O-])c(S(=O)(=O)Nc2nnc(-c3ccc(C(c4c[nH]c5ccc(Br)cc45)c4c[nH]c5ccc(Br)cc45)cc3)s2)c1 [Compound 13, N-(5-(4-(bis(5-bromo-1H-indol-3-yl)methyl)phenyl)-1,3,4-thiadiazol-2-yl)-5 methyl-2-nitrobenzenesulfonamide]	312 to 313	5.1 ± 0.1
Cc1ccccc1S(=O)(=O)Nc1nnc(-c2ccc(C(c3c[nH]c4ccc(Br)cc34)c3c[nH]c4ccc(Br)cc34)cc2)s1 [Compound 16, N-(5-(4-(bis(5-bromo-1H-indol-3-yl)methyl)phenyl)-1,3,4-thiadiazol-2-yl)-2-methylbenzenesulfonamide]	291 to 292	23.8 ± 1
O=[N+]([O-])c1ccc(S(=O)(=O)Nc2nnc(-c3ccc(C(c4c[nH]c5ccc(Br)cc45)c4c[nH]c5ccc(Br)cc45)cc3)s2)c([N+](=O)[O-])c1 [Compound 8, N-(5-(4-(bis(5-bromo-1H-indol-3-yl)methyl)phenyl)-1,3,4-thiadiazol-2-yl)-2,4-dinitrobenzenesulfonamide]		0.5 ± 0.01
O=S(=O)(Nc1nnc(-c2ccc(C(c3c[nH]c4ccc(Br)cc34)c3c[nH]c4ccc(Br)cc34)cc2)s1)c1ccc(Cl)c(Cl)c1 [Compound 10, N-(5-(4-(bis(5-bromo-1H-indol-3-yl)methyl)phenyl)-1,3,4-thiadiazol-2-yl)-3,4-dichlorobenzenesulfonamide]	302 to 303	1.6 ± 0.01
Cc1ccc(Cl)c(S(=O)(=O)Nc2nnc(-c3ccc(C(c4c[nH]c5ccc(Br)cc45)c4c[nH]c5ccc(Br)cc45)cc3)s2)c1 [Compound 12, N-(5-(4-(bis(5-bromo-1H-indol-3-yl)methyl)phenyl)-1,3,4-thiadiazol-2-yl)-2-chloro-5-methylbenzenesulfonamide]	301 to 302	8.5 ± 0.3
O=[N+]([O-])c1ccccc1S(=O)(=O)Nc1nnc(-c2ccc(C(c3c[nH]c4ccc(Br)cc34)c3c[nH]c4ccc(Br)cc34)cc2)s1 [Compound 3, N-(5-(4-(bis(5-bromo-1H-indol-3-yl)methyl)phenyl)-1,3,4-thiadiazol-2-yl)-2-nitrobenzenesulfonamide]	314 to 315	1.1 ± 0.01
COc1ccc(Br)c(S(=O)(=O)Nc2nnc(-c3ccc(C(c4c[nH]c5ccc(Br)cc45)c4c[nH]c5ccc(Br)cc45)cc3)s2)c1 [Compound 14, N-(5-(4-(bis(5-bromo-1H-indol-3-yl)methyl)phenyl)-1,3,4-thiadiazol-2-yl)-2-bromo-5-methoxybenzenesulfonamide]	309 to 310	19.8 ± 0.8
COc1ccc(Cl)cc1S(=O)(=O)Nc1nnc(-c2ccc(C(c3c[nH]c4ccc(Br)cc34)c3c[nH]c4ccc(Br)cc34)cc2)s1 [Compound 5, N-(5-(4-(bis(5-bromo-1H-indol-3-yl)methyl)phenyl)-1,3,4-thiadiazol-2-yl)-5-chloro-2-methoxybenzenesulfonamide]	315 to 316	7.3 ± 0.1
Cc1ccc(S(=O)(=O)Nc2nnc(-c3ccc(C(c4c[nH]c5ccc(Br)cc45)c4c[nH]c5ccc(Br)cc45)cc3)s2)cc1 [Compound 18, N-(5-(4-(bis(5-bromo-1H-indol-3-yl)methyl)phenyl)-1,3,4-thiadiazol-2-yl)-4-methylbenzenesulfonamide]	285 to 286	20.4 ± 1.2
O=S(=O)(Nc1nnc(-c2ccc(C(c3c[nH]c4ccc(Br)cc34)c3c[nH]c4ccc(Br)cc34)cc2)s1)c1ccccc1 [Compound 1, N-(5-(4-(bis(5-bromo-1H-indol-3-yl)methyl)phenyl)-1,3,4-thiadiazol-2-yl)benzenesulfonamide]	301 to 302	13.2 ± 0.3
O=S(=O)(Nc1nnc(-c2ccc(C(c3c[nH]c4ccc(Br)cc34)c3c[nH]c4ccc(Br)cc34)cc2)s1)c1cc(Cl)c(Cl)cc1Cl [Compound 6, N-(5-(4-(bis(5-bromo-1H-indol-3-yl)methyl)phenyl)-1,3,4-thiadiazol-2-yl)-2,4,5-trichlorobenzenesulfonamide]	299 to 300	0.7 ± 0.01
COc1ccc(O)c(S(=O)(=O)Nc2nnc(-c3ccc(C(c4c[nH]c5ccc(Br)cc45)c4c[nH]c5ccc(Br)cc45)cc3)s2)c1 [Compound 4, N-(5-(4-(bis(5-bromo-1H-indol-3-yl)methyl)phenyl)-1,3,4-thiadiazol-2-yl)-2-hydroxy-5-methoxybenzenesulfonamide]		2.2 ± 0.1
O=S(=O)(Nc1nnc(-c2ccc(C(c3c[nH]c4ccc(Br)cc34)c3c[nH]c4ccc(Br)cc34)cc2)s1)c1ccc(Cl)cc1Cl [Compound 7, N-(5-(4-(bis(5-bromo-1H-indol-3-yl)methyl)phenyl)-1,3,4-thiadiazol-2-yl)-2,4-dichlorobenzenesulfonamide]		2.3 ± 0.1
O=[N+]([O-])c1ccc(S(=O)(=O)Nc2nnc(-c3ccc(C(c4c[nH]c5ccc(Br)cc45)c4c[nH]c5ccc(Br)cc45)cc3)s2)cc1 [Compound 2, N-(5-(4-(bis(5-bromo-1H-indol-3-yl)methyl)phenyl)-1,3,4-thiadiazol-2-yl)-4-nitrobenzenesulfonamide]	312 to 313	1.8 ± 0.01
O=S(=O)(Nc1nnc(-c2ccc(C(c3c[nH]c4ccc(Br)cc34)c3c[nH]c4ccc(Br)cc34)cc2)s1)c1ccc2ccccc2c1 [Compound 11, N-(5-(4-(bis(5-bromo-1H-indol-3-yl)methyl)phenyl)-1,3,4-thiadiazol-2-yl)naphthalene-2-sulfonamide]	313 to 314	33.2 ± 1.2
O=[N+]([O-])c1ccc(S(=O)(=O)Nc2nnc(-c3ccc(C(c4c[nH]c5ccc(Br)cc45)c4c[nH]c5ccc(Br)cc45)cc3)s2)cc1Cl [Compound 9, N-(5-(4-(bis(5-bromo-1H-indol-3-yl)methyl)phenyl)-1,3,4-thiadiazol-2-yl)-3-chloro-4-nitrobenzenesulfonamide]	318 to 319	1.1 ± 0.01
Cc1cccc(S(=O)(=O)Nc2nnc(-c3ccc(C(c4c[nH]c5ccc(Br)cc45)c4c[nH]c5ccc(Br)cc45)cc3)s2)c1 [Compound 17, N-(5-(4-(bis(5-bromo-1H-indol-3-yl)methyl)phenyl)-1,3,4-thiadiazol-2-yl)-3-methylbenzenesulfonamide]	289 to 290	28.6 ± 1.2
COc1ccc([N+](=O)[O-])c(S(=O)(=O)Nc2nnc(-c3ccc(C(c4c[nH]c5ccc(Br)cc45)c4c[nH]c5ccc(Br)cc45)cc3)s2)c1 [Compound 15, N-(5-(4-(bis(5-bromo-1H-indol-3-yl)methyl)phenyl)-1,3,4-thiadiazol-2-yl)-5-methoxy-2-nitrobenzenesulfonamide]	308 to 309	3.9 ± 0.1
